The results in this text go back to ChEMBL document CHEMBL1201862, “PubChem BioAssay data set” (2004).

Among the test systems are HCT-116; NCI/ADR-RES; RPMI-8226; M14; A549; SF-295; UACC-257; HCT-15; SF-268; T47D; IGROV-1; CAKI-1; SK-OV-3; HL-60; SK-MEL-5; SR; NCI-H23; Malme-3M; KM12; SNB-75.
What all share (assay): NCI tumour cell line growth inhibition, 48 h

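Following 48 hours of exposure in 96-well plates, responses at five concentrations were used to interpolate endpoints linearly. Here, GI50 denotes the concentration required for 50% inhibition of growth.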 Calls of active or inactive are those of the source. Rule as the data show it: active = GI50 up to about 1.1 µM and inactive = higher. Some results are limits rather than exact numbers.

In the case of `O=c1c2ncn(CCCl)c2n(-c2ccccc2)c(=S)n1-c1ccccc1`, the GI50 with HCT-116, in the assay with NCI/ADR-RES, with RPMI-8226, in the assay with M14, in the assay on A549 and in the assay with SF-295 was > 100 µM (inactive) in each case. Further, the GI50 with UACC-257 was > 100 µM (inactive); in the assay with HCT-15, > 100 µM; with SF-268 it was > 100 µM (inactive); with T47D, > 100 µM (inactive); in the assay on IGROV-1 it was > 100 µM (inactive); in the assay with CAKI-1, > 100 µM (inactive). The GI50 in the assay with SK-OV-3, in the assay with HL-60, in the assay with SK-MEL-5, in the assay on SR, in the assay with NCI-H23 and with Malme-3M was > 100 µM (inactive) throughout. Besides, the GI50 in the assay with KM12 is > 100 µM (inactive).
For the compound `Cc1c2c3ccccc3nc-2n(C)c2ccccc12`, the GI50 in the assay on HCT-116 is 0.495 µM (active); with NCI/ADR-RES, 2.01 µM (inactive); in the assay with RPMI-8226, 2.7 µM (inactive); in the assay with M14, 3.48 µM (inactive); in the assay with A549 it was 1.57 µM (inactive); in the assay on SF-295 it was 3.7 µM (inactive). Also, the GI50 in the assay with UACC-257 is 2.11 µM (inactive); with HCT-15, 0.548 µM; in the assay on SF-268, 3.83 µM (inactive); with T47D, 3.08 µM (inactive); with IGROV-1 it was 2.32 µM (inactive); in the assay on SNB-75, 2.48 µM (inactive). In addition, the GI50 is 1.25 µM (inactive) in the assay on SK-OV-3; 3.29 µM (inactive) with HL-60; 0.437 µM (active) with SK-MEL-5; 1.44 µM (inactive) in the assay with SR; 2.5 µM (inactive) in the assay on NCI-H23; 2.08 µM (inactive) in the assay with Malme-3M. The GI50 in the assay on KM12 was 1.15 µM (inactive).
For the compound `Clc1cccc(-c2nc3cccc4c3n2Cc2ncccc2-4)c1`, the GI50 in the assay with HCT-116 is > 100 µM (inactive); with NCI/ADR-RES, > 100 µM (inactive); with M14, > 100 µM (inactive); in the assay on A549 it was 21.9 µM (inactive); in the assay on SF-295, 41.6 µM (inactive); with UACC-257, > 100 µM (inactive). Besides, the GI50 in the assay with HCT-15 is > 100 µM; in the assay on SF-268 it was 32.8 µM (inactive); in the assay with T47D, > 100 µM (inactive); in the assay on IGROV-1, 54.3 µM (inactive); with SNB-75 it was 9.04 µM (inactive); in the assay on CAKI-1 it was 8.02 µM (inactive). For the same compound, the GI50 with SK-OV-3 is 96.8 µM (inactive); in the assay with SR, 24 µM (inactive); in the assay on NCI-H23, > 100 µM (inactive); with Malme-3M, > 100 µM (inactive); in the assay with KM12, > 100 µM (inactive).
As to `CN1C(=O)c2c(c3c4ccccc4n(C)c3c3c2c2ccccc2n3C)C1=O`, the GI50 in the assay with HCT-116, in the assay with NCI/ADR-RES, in the assay on RPMI-8226, in the assay on M14, in the assay with A549 and with SF-295 was > 100 µM (inactive) throughout. Besides, the GI50 is > 100 µM (inactive) in the assay with UACC-257; > 100 µM in the assay on HCT-15; > 100 µM (inactive) with T47D; > 100 µM (inactive) with IGROV-1; > 100 µM (inactive) with SNB-75; > 100 µM (inactive) in the assay on CAKI-1. Moreover, the GI50 with SK-OV-3 was > 100 µM (inactive); in the assay with SK-MEL-5, > 100 µM (inactive); with SR it was 67.3 µM (inactive); with NCI-H23, > 100 µM (inactive); in the assay with Malme-3M, > 100 µM (inactive); in the assay with KM12, > 100 µM (inactive).
For `Cn1c(=O)c2nc[nH]c2n(C)c1=O` [THEOPHYLLINE], the GI50 in the assay on HCT-116, in the assay on NCI/ADR-RES, in the assay with RPMI-8226, with M14, in the assay with A549 and with UACC-257 was > 100 µM (inactive) throughout. Further, the GI50 in the assay with HCT-15 is > 100 µM; in the assay on T47D it was > 100 µM (inactive); with IGROV-1 it was > 100 µM (inactive); in the assay on CAKI-1, 22.9 µM (inactive); in the assay with HL-60 it was > 100 µM (inactive); in the assay with SK-MEL-5 it was > 100 µM (inactive). Further, the GI50 in the assay on SR, in the assay with NCI-H23, with Malme-3M and with KM12 was > 100 µM (inactive) each time.
On to `CC1(C)CC(=O)C(Cc2ccccc2)(Cc2ccccc2)C(=O)C1`, for which the GI50 in the assay with HCT-116, with NCI/ADR-RES, with M14, in the assay on A549, with SF-295 and in the assay with UACC-257 was > 100 µM (inactive) in each case. Further, the GI50 in the assay with HCT-15 is > 100 µM; in the assay on SF-268, > 100 µM (inactive); in the assay on T47D it was > 100 µM (inactive); with IGROV-1, > 100 µM (inactive); with SNB-75, 39.8 µM (inactive); in the assay on CAKI-1, > 100 µM (inactive). Besides, the GI50 in the assay on SK-OV-3, in the assay on HL-60, in the assay on SK-MEL-5, in the assay with SR, in the assay on NCI-H23 and in the assay with Malme-3M was > 100 µM (inactive) throughout. The GI50 in the assay on KM12 was > 100 µM (inactive).
Consider `Cn1c(-c2ccccc2)cc(-c2ccc3c(c2)OCO3)c1-c1ccsc1`, for which the GI50 with HCT-116, in the assay with NCI/ADR-RES, in the assay with RPMI-8226, in the assay with M14, with A549 and in the assay with SF-295 was > 100 µM (inactive) each time. For the same compound, the GI50 is > 100 µM (inactive) in the assay on UACC-257; > 100 µM with HCT-15; > 100 µM (inactive) in the assay with SF-268; > 100 µM (inactive) with T47D; > 100 µM (inactive) with SNB-75; > 100 µM (inactive) with CAKI-1. Also, the GI50 in the assay with SK-OV-3 was > 100 µM (inactive); in the assay with HL-60 it was > 100 µM (inactive); with SK-MEL-5 it was > 100 µM (inactive); with SR, > 100 µM (inactive); in the assay with NCI-H23 it was 52.8 µM (inactive); with KM12, > 100 µM (inactive).
Regarding `CC1(C)OC(=O)C(Cc2ccccc2)(Cc2ccccc2)C(=O)O1`, the GI50 in the assay with HCT-116, with NCI/ADR-RES, with M14, with A549, in the assay with SF-295 and with UACC-257 was > 100 µM (inactive) throughout. The GI50 is > 100 µM in the assay with HCT-15; > 100 µM (inactive) in the assay with SF-268; > 100 µM (inactive) with T47D; > 100 µM (inactive) in the assay on IGROV-1; > 100 µM (inactive) in the assay with SNB-75; > 100 µM (inactive) in the assay on CAKI-1. Moreover, the GI50 in the assay on SK-OV-3, with HL-60, in the assay with SK-MEL-5, in the assay with SR, with NCI-H23 and with Malme-3M was > 100 µM (inactive) each time. Besides, the GI50 in the assay on KM12 is > 100 µM (inactive).
As for `Oc1cc2c(cc1C(c1ccc3c(c1)OCO3)N1CCN(C(c3ccc4c(c3)OCO4)c3cc4c(cc3O)OCO4)CC1)OCO2` (stereo unspecified), the GI50 with HCT-116 is 15.7 µM (inactive); with NCI/ADR-RES it was 19.2 µM (inactive); with M14, 14.4 µM (inactive); with A549, 34 µM (inactive); in the assay with SF-295 it was 16.7 µM (inactive); in the assay on UACC-257 it was 17.6 µM (inactive). The GI50 in the assay with HCT-15 is 7.98 µM; in the assay with SF-268 it was 18 µM (inactive); in the assay with T47D, 17.2 µM (inactive); with IGROV-1, 16.9 µM (inactive); in the assay on SNB-75, 3.46 µM (inactive); with CAKI-1, 20.5 µM (inactive). Besides, the GI50 in the assay with SK-OV-3 was 27 µM (inactive); with HL-60, 32.5 µM (inactive); in the assay on SK-MEL-5, 18.6 µM (inactive); in the assay with SR, 3.61 µM (inactive); in the assay with NCI-H23, 16.9 µM (inactive); in the assay on Malme-3M, 15.6 µM (inactive). For the same compound, the GI50 in the assay on KM12 was 16.7 µM (inactive).
As for `O=C1CC(=O)N(C2CCCCC2)C(=O)N1c1ccccc1S(=O)(=O)Oc1ccccc1`, the GI50 in the assay on HCT-116 is > 100 µM (inactive); in the assay with NCI/ADR-RES, > 100 µM (inactive); with RPMI-8226, 26.5 µM (inactive); in the assay with M14 it was > 100 µM (inactive); in the assay on A549, > 100 µM (inactive); in the assay with SF-295, > 100 µM (inactive). In addition, the GI50 in the assay on UACC-257 is > 100 µM (inactive); with HCT-15, > 100 µM; in the assay with SF-268, 90.6 µM (inactive); in the assay with T47D, 85.1 µM (inactive); with IGROV-1, 14.9 µM (inactive); with SNB-75 it was > 100 µM (inactive). Also, the GI50 with CAKI-1, with SK-OV-3, with HL-60, in the assay on SK-MEL-5, with SR and in the assay with KM12 was > 100 µM (inactive) in each case.
In the case of `COc1cc(C2C3=C(COC3=O)OC(C)(C)Oc3cc4c(cc32)OCO4)cc(OC)c1O` (stereo unspecified), the GI50 with HCT-116 was 0.548 µM (active); in the assay on NCI/ADR-RES, 0.39 µM (active); in the assay with RPMI-8226, 1.62 µM (inactive); in the assay on M14 it was 1.09 µM (active); in the assay on A549 it was 0.944 µM (active); with SF-295, 0.232 µM (active). In addition, the GI50 in the assay with UACC-257 is 5.14 µM (inactive); in the assay on HCT-15 it was 0.873 µM; in the assay with SF-268, 0.916 µM (active); in the assay with T47D it was 0.498 µM (active); with IGROV-1, 0.989 µM (active); with CAKI-1, 1.87 µM (inactive). The GI50 was 0.757 µM (active) with SK-OV-3; 0.291 µM (active) with HL-60; 0.246 µM (active) in the assay on SK-MEL-5; 1.01 µM (active) in the assay on SR; 1.86 µM (inactive) in the assay with NCI-H23; 0.746 µM (active) in the assay on Malme-3M. The GI50 with KM12 is 0.531 µM (active).
